Measured values taken from patent EP4741383A1, “COMPOUND AND USE THEREOF AS ANTI-CANCER DRUG” (Tyligand Bioscience (Shanghai) Limited, priority 2023, dated 2025).

test system: SK-BR-3; assay: CellTiter-Glo cell proliferation inhibition, SK-BR-3; format: cell-based; settings: Homo sapiens; SK-BR-3 (breast cancer cell line), 72 hours; read-out: Example IC50 (µM) SK-BR-3
Source text: This experiment used the CellTiter-Glo® Luminescent Cell Viability Assay kit from Promega to evaluate the inhibitory activity of the disclosed compounds on the proliferation of the following cell lines: 4T1 (mouse breast cancer cell line), A20 (mouse B-cell lymphoma cell line), A2780 (human ovarian cancer cell line), AsPC-1 (pancreatic cancer cell line), B16F10 (mouse melanoma cell line), BT549 (human breast cancer cell line), CT26 (mouse colon cancer cell line), EMT6 (mouse breast cancer cell line), HCT116 (colorectal cancer cell line), Jurket (acute leukemia cell line), KP-4 (pancreatic cancer cell line), LL/2 (mouse lung cancer cell line), MCF7 (breast cancer cell line), […] NCI-H358 (lung cancer cell line), NCI-H727 (gastric cancer cell line), NCI-1944 (lung cancer cell line), Pan 04.03 (pancreatic cancer cell line), SK-BR-3 (breast cancer cell line), THP-1 (leukemia cell line), TOV21G (ovarian cancer cell line), U87MG (glioblastoma cell line), and UM-UC-a (bladder cancer cell line).
All cell lines were purchased from Nanjing Kebai Biotechnology Co., Ltd. The following materials were also used in the experiment: RPMI-1640 media (HyClone, catalog number #SH30022.01), McCoy's 5A media (Thermo Fisher, catalog number #16600-082), MCDB 105 media (Sigma, catalog number #117-500), Medium 199 (Thermo Fisher, catalog number #11150-059), MEM media (Thermo Fisher, catalog number #11095-080), DMEM media (HyClone, catalog number #SH30027.01), fetal bovine serum (FBS) (ExCell, catalog number # M4530), Sodium Pyruvate (100Mm) (Thermo Fisher, catalog number #11360-070), and MEM NEAA (100X) (Thermo Fisher). […]
Cells were cultured according to the instructions provided by the cell supplier (Nanjing Kebai Biotechnology Co., Ltd.). […] Suspension or adherent cells were collected, and cell viability was determined using the trypan blue exclusion method, ensuring that cell viability was above 90%. […]

Structure (SMILES)	IC50 [µM]
O=C(Nc1ccc(-c2csc(CO)c2)cc1)C(=O)Nc1ccc(-c2cc3cc(F)c(-c4nnn[nH]4)cc3n2C2CCC2)cc1 [Example 1]	0.14
CC1(n2c(-c3ccc(NC(=O)C(=O)Nc4ccc(N5CCC6(CCOC6)CC5)cc4)cc3)cc3cc(F)c(-c4nnn[nH]4)cc32)CCC1 [Example 68]	0.057
O=C(Nc1ccc(-c2cc3cc(F)c(-c4nnn[nH]4)cc3n2C2CCC2)cc1)C(=O)Nc1ccc(N2CCC3(CCC(O)C3)CC2)cc1 (stereo not drawn) [Example 100]	0.044
